# Reference: US9763942B2, “Serine/threonine kinase inhibitors” (Array BioPharma Inc., priority 2013, dated 2017)
# Target: T1, human ERK-2 (Mitogen Activated Kinase 1) (Homo sapiens, UniProt P28482)
# T1 construct: n-terminal 6-His fusion protein in E. coli and corresponding to aa 8-360; 6-His (N); made in house; host or cells: E. coli
# Assay: ERK-2 Enzymatic Assay
# Assay type: biochemical
# Details: ERK-2 enzymatic assay; read-out: IC50
# Text: Table 1 contains representative data for Examples disclosed herein.
# T1 sequence (P28482 8-360): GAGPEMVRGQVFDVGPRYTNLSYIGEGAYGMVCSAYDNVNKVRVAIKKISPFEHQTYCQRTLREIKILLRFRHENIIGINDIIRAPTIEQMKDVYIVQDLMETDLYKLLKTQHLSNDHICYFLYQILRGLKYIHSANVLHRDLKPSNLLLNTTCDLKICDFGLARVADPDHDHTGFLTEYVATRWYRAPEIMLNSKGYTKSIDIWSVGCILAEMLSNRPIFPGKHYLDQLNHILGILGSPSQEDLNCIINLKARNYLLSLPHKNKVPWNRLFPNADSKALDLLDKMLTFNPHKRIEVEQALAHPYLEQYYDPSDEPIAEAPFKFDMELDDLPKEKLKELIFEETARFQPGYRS
row,Structure (SMILES),IC50 [nM]
1,"Cn1nccc1Nc1nccc(-c2ccc3c(c2)nnn3C2CNCCC2c2cccc(F)c2)n1 (stereo not drawn) [Example 89, 4-(1-(4-(3-fluorophenyl)piperidin-3-yl)-1H-benzoyl[d][1,2,3]triazol-5-yl)-N-(1-methyl-1H-pyrazol-5-yl)pyrimidin-2-amine]",< 100
2,"Cn1nccc1Nc1nccc(-c2ccc3c(c2)nnn3C2CNCCC2c2ccc(F)cc2)n1 (stereo not drawn) [Example 90, 4-(1-(4-(4-fluorophenyl)piperidin-3-yl)-1H-benzo[d][1,2,3]triazol-5-yl)-N-(1-methyl-1H-pyrazol-5-yl)pyrimidin-2-amine]",< 100
3,"CN(C)CC(c1ccc(Cl)c(F)c1)n1nnc2cc(-c3ccnc(Nc4ccnn4C)n3)ccc21 (stereo not drawn) [Example 91, 4-(1-(1-(4-chloro-3-fluorophenyl)-2-(dimethylamino)ethyl)-1H-benzo[d][1,2,3]triazol-5-yl)-N-(1-methyl-1H-pyrazol-5-yl)pyrimidin-2-amine]",< 100
4,"Cn1nccc1Nc1nccc(-c2ccc3c(c2)nnn3C(CN2CCCC2)c2ccc(Cl)c(F)c2)n1 (stereo not drawn) [Example 92, 4-(1-(1-(4-chloro-3-fluorophenyl)-2-(pyrrolidin-1-yl)ethyl)-1H-benzo[d][1,2,3]triazol-5-yl)-N-(1-methyl-1H-pyrazol-5-yl)pyrimidin-2-amine]",< 100
5,"Cn1nccc1Nc1nccc(-c2ccc3c(c2)nnn3[C@H](CO)c2ccc(Cl)c(F)c2)n1 [Example 93, (S)-2-(4-chloro-3-fluorophenyl)-2-(5-(2-((1-methyl-1H--pyrazol-5-yl)amino)pyrimidin-4-yl)-1H-benzo[d][1,2,3]triazol-1-yl)ethanol]",< 100
6,"Cn1nccc1Nc1nccc(-c2ccc3c(c2)nnn3[C@@H](CO)c2ccc(Cl)c(F)c2)n1 [Example 94, (R)-2-(4-chloro-3-fluorophenyl)-2-(5-(2-((1-methyl-1H-pyrazol-5-yl)amino)pyrimidin-4-yl)-1H-benzo[d][1,2,3]triazol-1-yl)ethanol]",< 100
7,"COc1ccc([C@@H](CO)n2nnc3cc(-c4ccnc(Nc5ccnn5C)n4)ccc32)cc1F [Example 95, (S)-2-(3-fluoro-4-methoxyphenyl)-2-(5-(2-((1-methyl-1H-pyrazol-5-yl)amino)pyrimidin-4-yl)-1H-benzo[d][1,2,3]triazol-1-yl)ethanol]",< 100
8,"CCC(C)Cn1nnc2cc(-c3ccnc(Nc4cnn(C)c4)n3)ccc21 (stereo not drawn) [Example 96, N-(1-methyl-1H-pyrazol-4-yl)-4-(1-(2-methylbutyl)-1H-benzo[d][1,2,3]triazol-5-yl)pyrimidin-2-amine]",< 100
9,"CC(C)Cn1nnc2cc(-c3ccnc(Nc4cnn(C)c4)n3)ccc21 [Example 97, 4-(1-isobutyl-1H-benzo[d][1,2,3]triazol-5-yl)-N-(1-methyl-1H-pyrazol-4-yl)pyrimidin-2-amine]",< 100
10,"CCC(C)Cn1nnc2cc(-c3ccnc(N[C@@H](C)CO)n3)ccc21 (stereo partly drawn) [Example 98, (2S)2-((4-(1-(2-methylbutyl)-1H-benzo[d][1,2,3]triazol-5-yl)pyrimidin-2-yl)amino)propan-1-ol]",< 100
11,"CC(C)Cn1nnc2cc(-c3ccnc(Nc4cnn(C)n4)n3)ccc21 [Example 99, 4-(1-isobutyl-1H-benzo[d][1,2,3]triazol-5-yl)-N-(2-methyl-2H-1,2,3-triazol-4-yl)pyrimidin-2-amine]",< 100
12,"CCC(C)Cn1nnc2cc(-c3ccnc(Nc4cnn(C)n4)n3)ccc21 (stereo not drawn) [Example 100, N-(2-methyl-2H-1,2,3-triazol-4-yl)-4-(1-(2-methylbutyl)-1H-benzo[d][1,2,3]triazol-5-yl)pyrimidin-2-amine]",< 100
13,"Cn1nccc1Nc1nccc(-c2ccc3c(c2)nnn3CC2CCCCO2)n1 (stereo not drawn) [Example 101, N-(1-methyl-1H-pyrazol-5-yl)-4-(1-((tetrahydro-2H-pyran-2-yl)methyl)-1H-benzoyl[d][1,2,3]triazol-5-yl)pyrimidin-2-amine]",< 100
14,"CC(C)OCCCn1nnc2cc(-c3ccnc(Nc4ccnn4C)n3)ccc21 [Example 102, 4-(1-(3-isopropoxypropyl)-1H-benzo[d][1,2,3]triazol-5-yl)-N-(1-methyl-1H-pyrazol-5-yl)pyrimidin-2-amine]",< 100
15,"Cc1cnn(CCn2nnc3cc(-c4ccnc(Nc5ccnn5C)n4)ccc32)c1 [Example 103, 4-(1-(2-(4-methyl-1H-pyrazol-1-yl)ethyl)-1H-benzo[d][1,2,3]triazol-5-yl)-N-(1-methyl-1H-pyrazol-5-yl)pyrimidin-2-amine]",< 100
16,"COc1cccc(F)c1CN1CCC[C@@H](n2nnc3cc(-c4ccnc(Nc5ccnn5C)n4)ccc32)C1 [Example 105, (R)-4-(1-(1-(2-fluoro-6-methoxybenzyl)piperidin-3-yl)-1H-benzo[d][1,2,3]triazol-5-yl)-N-(1-methyl-1H-pyrazol-5-yl)pyrimidin-2-amine]",< 100
17,"COc1cccc(F)c1CN1C[C@H](n2nnc3cc(-c4ccnc(Nc5ccnn5C)n4)ccc32)CC(F)(F)C1 [Example 106, (R)-4-(1-(5,5-difluoro-1-(2-fluoro-6-methoxybenzyl)piperidin-3-yl)-1H-benzo[d][1,2,3]triazol-5-yl)-N-(1-methyl-1H-pyrazol-5-yl)pyrimidin-2-amine]",< 100
18,"Fc1cccc(Cn2nnc3cc(-c4ccnc(NC5CCOCC5)n4)ccc32)c1 [Example 107, 4-(1-(3-fluorobenzyl)-1H-benzo[d][1,2,3]triazol-5-yl)-N-(tetrahydro-2H-pyran-4-yl)pyrimidin-2-amine]",< 100

row,Structure (SMILES),IC50 [nM]
1,"Cn1nccc1Nc1nccc(-c2ccc3c(c2)nnn3Cc2ccc(Cl)c(F)c2)n1 [Example 108, 4-(1-(4-chloro-3-fluorobenzyl)-1H-benzo[d][1,2,3]triazol-5-yl)-N-(1-methyl-1H-pyrazol-5-yl)pyrimidin-2-amine]",< 100
2,"Fc1cc(Cn2nnc3cc(-c4ccnc(NC5CCOCC5)n4)ccc32)ccc1Cl [Example 109, 4-(1-(4-chloro-3-fluorobenzyl)-1H-benzo[d][1,2,3]triazol-5-yl)-N-(tetrahydro-2H-pyran-4-yl)pyrimidin-2-amine]",< 100
3,"COc1ccc(Cn2nnc3cc(-c4ccnc(NC5CCOCC5)n4)ccc32)cc1F [Example 110, 4-(1-(3-fluoro-4-methoxybenzyl)-1H-benzo[d][1,2,3]triazol-5-yl)-N-(tetrahydro-2H-pyran-4-yl)pyrimidin-2-amine]",< 100
4,"Fc1ccc(Cn2nnc3cc(-c4ccnc(NC5CCOCC5)n4)ccc32)cc1 [Example 111, 4-(1-(4-fluorobenzyl)-1H-benzo[d][1,2,3]triazol-5-yl)-N-(tetrahydro-2H-pyran-4-yl)pyrimidin-2-amine]",< 100
5,Clc1ccc(Cn2nnc3cc(-c4ccnc(NC5CCOCC5)n4)ccc32)cc1 [Example 112],< 100
6,"COc1ccc(Cn2nnc3cc(-c4ccnc(Nc5ccnn5C)n4)ccc32)cc1F [Example 113, 4-(1-(3-fluoro-4-methoxybenzyl)-1H-benzol[d][1,2,3]triazol-5-yl)-N-(1-methyl-1H-pyrazol-5-yl)pyrimidin-2-amine]",< 100
7,"CC(C)Cn1nnc2cc(-c3ccnc(Nc4ccnn4C)n3)cnc21 [Example 114, 4-(3-isobutyl-3H-[1,2,3]triazolo[4,5-b]pyridin-6-yl)-N-(1-methyl-1H-pyrazol-5-yl)pyrimidin-2-amine]",< 100
8,"Cn1nccc1Nc1cc(-c2cnc3c(c2)nnn3Cc2cccc(Cl)c2)ccn1 [Example 115, 4-(3-(3-chlorobenzyl)-3H-[1,2,3]triazolo[4,5-b]pyridin-6-yl)-N-(1-methyl-1H-pyrazol-5-yl)pyridin-2-amine]",< 100
9,"Cn1nccc1Nc1nccc(-c2cnc3c(c2)nnn3Cc2ccc(Cl)cc2)n1 [Example 116, 4-(3-(4-chlorobenzyl)-3H-[1,2,3]triazolo[4,5-b]pyridin-6-yl)-N-(1-methyl-1H-pyrazol-5-yl)pyrimidin-2-amine]",< 100
10,"Cn1nccc1Nc1nccc(-c2ccc3c(c2)nnn3Cc2cccc(Cl)c2)n1 [Example 117, 4-(1-(3-chlorobenzyl)-1H-benzo[d][1,2,3]triazol-5-yl)-N(1-methyl-1H-pyrazol-5-yl)pyrimidin-2-amine]",< 100
11,"Cn1nccc1Nc1nccc(-c2cnc3c(c2)nnn3CCc2cccc(Cl)c2)n1 [Example 118, 4-(3-(3-chlorophenethyl)-3H-[1,2,3]triazolo[4,5-b]pyridin-6-yl)-N-(1-methyl-1H-pyrazol-5-yl)pyrimidin-2-amine]",< 100
12,"Cn1nccc1Nc1nccc(-c2cnc3c(c2)nnn3Cc2ccc(Cl)c(F)c2)n1 [Example 119, 4-(3-(4-chloro-3-fluorobenzyl)-3H-(1,2,3]triazolo[4,5-b]pyridin-6-yl)-N-(1-methyl-1H-pyrazol-5-yl)pyrimidin-2-amine]",< 100
13,"Cn1nccc1Nc1nccc(-c2ccc3c(c2)nnn3Cc2cccc(F)c2)n1 [Example 120, 4-(1-(3-fluorobenzyl)-1H-benzo[d][1,2,3]triazol-5-yl)-N-(1-methyl-1H-pyrazol-5-yl)pyrimidin-2-amine]",< 100
14,"Cn1nccc1Nc1nccc(-c2cnc3c(c2)nnn3Cc2ccc(F)c(Cl)c2)n1 [Example 121, 4-(3-(3-chloro-4-fluorobenzyl)-3H-[1,2,3]triazolo[4,5-b]pyridin-6-yl)-N-(1-methyl-1H-pyrazol-5-yl)pyrimidin-2-amine]",< 100
15,Cn1nccc1Nc1nccc(-c2ccc3c(c2)nnn3Cc2ccccc2C(F)(F)F)n1 [Example 122],< 100
16,Cn1nccc1Nc1nccc(-c2ccc3c(c2)nnn3Cc2ccc(F)cc2F)n1 [Example 123],< 100
17,"Cn1nccc1Nc1nccc(-c2cnc3c(c2)nnn3Cc2cccc(Cl)c2)n1 [Example 124, 4-(3-(3-chlorobenzyl)-3H-[1,2,3]triazolo[4,5-b]pyridin-6-yl)-N-(1-methyl-1H-pyrazol-5-yl)pyrimidin-2-amine]",< 100
18,"Cn1nccc1Nc1nccc(-c2ccc3c(c2)nnn3Cc2ccc(F)c(Cl)c2)n1 [Example 125, 4-(1-(3-chloro-4-fluorobenzyl)-1H-benzo[d][1,2,3]triazol-5-yl)-N-(1-methyl-1H-pyrazol-5-yl)pyrimidin-2-amine]",< 100
